Source: patent publication US20210169958A1, “Preparation Method of Agrocybe Aegerita Extract and its use in Preparing Medicine for Lowering Uric Acid” (Guangdong Institute of Microbiology (Guang Dong Detection …, priority 2018, published 2021)

What was measured:
hyperuricemia mice [1] = assay: Urine uric acid level in hyperuricemia mice; format: in vivo, Kunming mice; conditions: normal 605, model 293 μmol/L
Procedure: (§1) Except for the normal control group by intraperitoneal injection and intragastric administration of distilled water, the other groups were intraperitoneally injected with oxazine potassium salt at a dose of 100 mg/kg/d, and simultaneously intragastrically with a dose of 600 mg/kg/d hypoxanthine for modeling. […] Low, middle, and high-dose Agrocybe aegerita water extract administration group (Agrocybe aegerita water extract, AAW) were respectively 50, 100, 200 mg/kg concentration of the Agrocybe aegerita water extract prepared in Example 2 100 mg/kg/d for intragastric administration. […] The blood samples were separated and the serum was stored at −20° C. The organs of the mice were removed, including the liver, spleen, and kidneys, and washed with physiological saline solution. Then blot it dry with an ordinary filter and weigh it. […] (8) Statistical analysis is performed using the professional data processing program SPSS (Release 11.5, SPSS Inc., 2001). All data are expressed as mean±standard error (S.D.) and analyzed by one-way analysis of variance (ANOVA), and group means were compared by two-tailed Student's t test. Differences with statistical significance (P<0.05 or P<0.01) are indicated by the following symbols: There is a differences from the normal control group: *P<0.05, **P<0.01. […]

[2] = Body weight change of mice; format: in vivo, Kunming mice; conditions: compared with normal group, 7 days, all doses
Procedure: Except for the normal control group by intraperitoneal injection and intragastric administration of distilled water, the other groups were intraperitoneally injected with oxazine potassium salt at a dose of 100 mg/kg/d, and simultaneously intragastrically with a dose of 600 mg/kg/d hypoxanthine for modeling. […] Low, middle, and high-dose Agrocybe aegerita water extract administration group (Agrocybe aegerita water extract, AAW) were respectively 50, 100, 200 mg/kg concentration of the Agrocybe aegerita water extract prepared in Example 2 100 mg/kg/d for intragastric administration. […] (8) Statistical analysis is performed using the professional data processing program SPSS (Release 11.5, SPSS Inc., 2001). All data are expressed as mean±standard error (S.D.) and analyzed by one-way analysis of variance (ANOVA), and group means were compared by two-tailed Student's t test. Differences with statistical significance (P<0.05 or P<0.01) are indicated by the following symbols: There is a differences from the normal control group: *P<0.05, **P<0.01. There is a difference between the control and PO and HX-induced hyperuricemia model group, #P<0.05, ##P<0.01.

hyperuricemia mice [3] = assay: Serum urea nitrogen (BUN) level, renal function of hyperuricemia mice; format: in vivo, Kunming mice; conditions: allopurinol group; normal 4.47, model 5.96 mmol/L
Procedure: as §1

hyperuricemia mice [4] = assay: Serum uric acid level in potassium oxonate + hypoxanthine hyperuricemia mice; format: in vivo, Kunming mice; conditions: 7 days, normal 196, model 313 μmol/L
Procedure: as §1

URAT1 = URAT1 expression in mouse kidney by ELISA kit; format: in vivo; conditions: allopurinol group; normal 96.95, model 104.85 pg/mL
Procedure: (§2) Except for the normal control group by intraperitoneal injection and intragastric administration of distilled water, the other groups were intraperitoneally injected with oxazine potassium salt at a dose of 100 mg/kg/d, and simultaneously intragastrically with a dose of 600 mg/kg/d hypoxanthine for modeling. […] Low, middle, and high-dose Agrocybe aegerita water extract administration group (Agrocybe aegerita water extract, AAW) were respectively 50, 100, 200 mg/kg concentration of the Agrocybe aegerita water extract prepared in Example 2 100 mg/kg/d for intragastric administration. The normal control group and the hyperuricemia model control group were gavage with the same volume of pure water for 7 consecutive days, and in the 1, 3, 5, and 7 days to weigh the mice.
(4) Take the organs obtained in step (2) and calculate the organ coefficients (liver coefficient, spleen coefficient and kidney coefficient) by dividing […]. […]
(§3) (8) Statistical analysis is performed using the professional data processing program SPSS (Release 11.5, SPSS Inc., 2001). All data are expressed as mean±standard error (S.D.) and analyzed by one-way analysis of variance (ANOVA), and group means were compared by two-tailed Student's t test. […]

hyperuricemia mice [5] = assay: Kidney (renal) coefficient and kidney observation of mice; format: in vivo, Kunming mice
Procedure: (§4) Except for the normal control group by intraperitoneal injection and intragastric administration of distilled water, the other groups were intraperitoneally injected with oxazine potassium salt at a dose of 100 mg/kg/d, and simultaneously intragastrically with a dose of 600 mg/kg/d hypoxanthine for modeling. […] Low, middle, and high-dose Agrocybe aegerita water extract administration group (Agrocybe aegerita water extract, AAW) were respectively 50, 100, 200 mg/kg concentration of the Agrocybe aegerita water extract prepared in Example 2 100 mg/kg/d for intragastric administration. […] The blood samples were separated and the serum was stored at −20° C. The organs of the mice were removed, including the liver, spleen, and kidneys, and washed with physiological saline solution. Then blot it dry with an ordinary filter and weigh it. […] The supernatant was retained for XOD activity analysis and Western blot analysis. (8) Statistical analysis is performed using the professional data processing program SPSS (Release 11.5, SPSS Inc., 2001). All data are expressed as mean±standard error (S.D.) and analyzed by one-way analysis of variance (ANOVA), and group means were compared by two-tailed Student's t test. Differences with statistical significance (P<0.05 or P<0.01) are indicated by the following symbols: There is a differences from the normal control group: *P<0.05, **P<0.01. […]

hyperuricemia mice [6] = assay: Liver coefficient of mice; format: in vivo, Kunming mice; conditions: all treatment groups
Procedure: as §4

[7] = test system: OAT1 (organic anion transporter 1); assay: Western blot of kidney samples, OAT1 protein expression; format: in vivo, mouse; conditions: compared with the model group, each dose group
Procedure: as §2, with “mice. […]” for “mice.”
(7) Western blot analysis of kidney samples. Using GAPDH (glyceraldehyde-3-phosphate dehydrogenase) as an internal control, the expression of proteins including URAT1 (urate transporter 1) and OAT1 (organic anion transporter 1) were detected.
as §3

Oc1ncnc2[nH]ncc12 [allopurinol]
urine uric acid level (hyperuricemia mice [1]; allopurinol group (5 mg/kg per method)): 267 µmol/L | effect on body weight [2]: inhibited the weight increase of mice | serum BUN (hyperuricemia mice [3]): 4.74 mmol/L | blood uric acid of hyperuricemia mice (hyperuricemia mice [4]; 5 mg/kg intragastric): 105 µmol | URAT1 protein expression level (ELISA, kidney) (URAT1): 151.96 pg/mL | renal coefficient (hyperuricemia mice [5]; allopurinol group, normal 1.25%): 1.42% | kidney observation (hyperuricemia mice [5]; not observed in other groups): vesicular nephritis was observed | liver coefficient, effect on liver function (hyperuricemia mice [6]): little effect on liver function

CCc1oc2ccccc2c1C(=O)c1cc(Br)c(O)c(Br)c1 [benzbromarone]
urine uric acid level (hyperuricemia mice [1]; 7.8 mg/kg): 408 µmol/L | OAT1 protein expression (Western blot, gray analysis) [7]: increase the expression of OAT1 | blood uric acid of hyperuricemia mice (hyperuricemia mice [4]; 7.8 mg/kg intragastric): 206 µmol
